{"source": "patent US7795263B2", "about": "“Pharmaceutical combination for and method of anesthetizing and immobilizing non-domesticated mammals” (Wildlife Laboratories, Inc., priority 2008, dated 2010)", "test_system": "captive white-tailed deer (Odocoileus virginianus)", "experiment": "BAM-1 / BAM-2 in captive white-tailed deer with NTA antagonist reversal (Example 4)", "format": "in vivo", "conditions": "adult male not recovered after BAM-2 and NTA-1", "method": "BAM was administered to captive white-tailed deer (Odocoileus virginianus) at two dose levels (BAM-1 and BAM-2) in an approved-protocol study, to evaluate efficacy, quality of anesthesia, and quality of recovery following administration of tolazoline, atipamezole, and naltrexone antagonists.\nThe deer of the study were housed in large (0.4-0.8 ha) forested outdoor pens and were fed 17% protein ration with fresh hay and water available ad libitum. The average ambient temperature at time of immobilization and anesthesia was 14.4° C. Temperatures ranged from −1.7 to 25.6° C. […]\nImmediately after BAM injection, each deer was released into a 15×20 m observation pen where the time to first noticeable drug effect (e.g., stumbling, gait changes) was recorded, the sternal time (when deer collapsed without rising again) was recorded, the lateral time (when deer lowered head and became immobile) was recorded, and the approachable time (when deer remained immobile and seemed oblivious to its surroundings) was recorded. […]\nThe heart rate (determined by auscultation), respiration rate (determined by thoracic movements), rectal temperature, and hemoglobin saturation level were recorded at 0, 10, and 20 minutes after recumbency. […] Heart rate readings from pulse oximetry were compared to heart rates as determined by auscultation. […]"}
{"compound": "c1ccc(CC2=NCCN2)cc1", "note": "[tolazoline]", "values": [{"measurement": "effect of subsequent IM injection of 250 mg tolazoline", "result": "led to recovery from anesthesia, with minimal ataxia"}]}
